Test results published in patent publication EP0390718A1, “Process for preparing new 1-diphenylmethylpiperidine derivatives” (FABRICA ESPANOLA DE PRODUCTOS QUIMICOS Y FARMACEUTICOS, …, priority 1989, dated 1990).

Columns and labels:
[1] = tested on: Swiss male mice; assay: preliminary study of the main pharmacologic effects, observation of symptoms and reflexes in mice; type: in vivo; conditions: 300 mg/kg
Protocol: A preliminary study has been made of the main pharmacologic effects using Swiss male mice distributed in groups of four animals; each group was administered one of the products in doses of 300 mg/kg and the animals began to be observed, logging the time when symptoms appeared or given reflexes decreased: spontaneous activity, appearance of stereotype, trembling, convulsions, abnormal body position, loss of reflexes, extent of palpebral aperture, salivation, pyloerection, hypothermia, lachrymation or change in skin colour; observation lasted for 30 minutes and was repeated 1, 2, 3, 4 and 24 hours after treatment; the reference compound chosen was a well-known antiallergic, ketotyphene.

[2] = target: guinea pig isolated ileum contractions caused by histamine (Cavia porcellus, UniProt P31389); assay: guinea pig isolated ileum contractions caused by histamine (in vitro antihistaminic activity); type: cell-based; conditions: drug concentration inhibiting 50% of the response to histamine; 10 minutes of incubation with each concentration; Tyrode solution at 37°C; unit M only printed in method b12 (10⁻⁸-10⁻⁵ M); read-out: CI50 (the source's name)
[3] = Swiss male mice, groups of four, observed 30 minutes and 1, 2, 3, 4 and 24 hours after treatment

Sequence of guinea pig isolated ileum contractions caused by histamine (P31389 whole entry): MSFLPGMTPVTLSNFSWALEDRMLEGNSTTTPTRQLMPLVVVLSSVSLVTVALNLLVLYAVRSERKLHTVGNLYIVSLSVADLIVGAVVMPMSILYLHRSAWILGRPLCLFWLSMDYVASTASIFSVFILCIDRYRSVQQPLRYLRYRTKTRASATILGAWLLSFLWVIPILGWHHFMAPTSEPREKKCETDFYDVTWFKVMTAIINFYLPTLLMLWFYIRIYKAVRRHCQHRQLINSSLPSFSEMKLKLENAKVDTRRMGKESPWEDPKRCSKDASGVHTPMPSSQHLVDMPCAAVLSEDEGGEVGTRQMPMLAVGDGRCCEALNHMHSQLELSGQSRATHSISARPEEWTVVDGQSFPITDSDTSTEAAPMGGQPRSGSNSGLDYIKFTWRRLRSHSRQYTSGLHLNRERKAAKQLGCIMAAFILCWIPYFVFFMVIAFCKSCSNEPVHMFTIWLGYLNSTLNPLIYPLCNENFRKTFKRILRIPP

Row | Molecule | Maximum effect observed/No. of animals Decreased spontaneous activity [1, 3] | IC50 [2] | Maximum effect observed/No. of animals Body reflex loss [1, 3] | Maximum effect observed/No. of animals Hearing reflex loss ([1]; mouse, in vivo) | Maximum effect observed/No. of animals Hypothermia ([1]; mouse, in vivo) | Maximum effect observed/No. of animals Palpebral potosis ([1]; mouse, in vivo)
1 | 1-[(4-chlorophenyl)methyl]-N-[1-(diphenylmethyl)piperidine-4-yl]-2-amino-1 H-benzimidazol [Example 4] | 0 | 63 nM |  |  |  | 
2 | N-[(1-diphenylmethyl)piperidine-4-yl]-1-[(4-fluorophenyl)methyl]-2-amino-1 H-benzimidazol [Example 5] | 0 | 56 nM |  |  |  | 
3 | CN1CCC(=C2c3ccccc3CC(=O)c3sccc32)CC1 [Ketotiphene] | 2/4 |  | 1/4 | - | 4/4 | 1/4
